# From patent US6462193B1, “Hydroxyazepanes as inhibitors of glycosidase and HIV protease” (The Scripps Research Institute, priority 1999, dated 2002)
# “Also recorded” adds a separate entry of the source. Where two headings read alike, the source gives them in different places.
# Assays:
# glycosidases = test: Glycosidase inhibition analysis, panel of glycosidases; type: biochemical
# Protocol: (§1) Inhibition analyses were performed at 37° C. in 0.1 M HEPES buffer, pH=6.8, except for α-fucosidase (assayed at 37° C. in 50 mM sodium acetate buffer, pH 6.0). The amount of enzyme added in each assay was 0.05 units (0.1 units for β-galactosidase and α-fucosidase). […] Data were collected and fitted to a Michaelis-Menten curve by using the program HyperCleland for enzyme kinetics analysis (Cleland, W. W. Methods Enzymol. 1979, 63, 103).
# HIV protease = molecular target: T1, HIV protease (Human immunodeficiency virus type 1 group M subtype B, UniProt P03369); type: biochemical, HIV-1
# T1 construct: a backbone engineered HIV-1 protease was prepared by total synthesis; made in house; host or cells: total chemical synthesis (no expression host)
# Protocol: For determination of IC50 values for HIV protease, a backbone engineered HIV-1 protease was prepared by total synthesis (Schnolzer et al. Science 1992, 256, 221) 450 nM Final concentration of the protease was added to a solution (152 μL final volume) containing tetrahydroxyazepane (inhibitor), 28 μM fluorogenic peptide substrate (Abz-Thr-Ile-Phe-(p-NO2)-Gln-Arg-NH2) (Tith et al. Int. J. Peptide Protein Res. 1990, 36, 544; Slee, et al. J. Am. Chem. Soc. 1995, 117, 11867) and 1.8% dimethyl sulfoxide in assay buffer: 100 mM MES buffer containing 0.5 mg/mL BSA (bovine serum album) at pH 5.5. A Km of 37±8 μM was reported for the synthetic HIV protease against the above fluorogenic substrate. The solution was mixed and incubated over 5 minutes at 37° C. during which time the rate of substrate cleavage was monitored by continuously recording the change in fluorescence of the assay solution. An excitation filter of 325 nm and an emission filter of 420 nm were used. For each inhibitor concentration, three measurements were carried out.
# FIV protease = molecular target: T2, FIV protease (Feline immunodeficiency virus, UniProt P16088); test: FIV protease inhibition, fluorogenic peptide substrate; type: biochemical
# T2 construct: enzymatic activity of recombinantly derived FIV protease; made in house
# Protocol: The inhibitory effects of compounds 60a, 60b, 64a, 64b, 65a, and 65b on the enzymatic activity of recombinantly derived FIV protease (Slee et al. J. Am. Chem. Soc. 1995, 117, 11867) were studied using a fluorogenic assay based on the enzymatic cleavage of a novel peptide based substrate [Arg-Ala-Leu-Thr-Lys(aminobenzyl)-[…]. Inhibition studies were carried out at a single substrate concentration (20 μM) in a 50 mM sodium citrate/100 mM sodium phosphate buffer (pH 5.3) containing 2% DMSO and 1M sodium chloride. The same wavelengths were used for detections. […] IC50 values were determined by least squares analysis of Dixon Plots (Dixon, M. J. Biochem. 1953, 55, 170).
# β-galactosidase [1] = conditions: read-out: Ki as inhibitor of β-galactosidase; literature value (Bernotas et al. 1987); cited from earlier work
# [2] = molecular target: β-N-acetylglucosaminidase; test: Glycosidase inhibition analysis, β-N-acetylglucosaminidase; type: biochemical; conditions: read-out: Ki as inhibitor of β-N-acetylglucosaminidase
# Protocol: as §1
# α-fucosidase = molecular target: T3, α-fucosidase (Bos taurus, UniProt Q2KIM0); conditions: literature value (Fleet et al. 1985); read-out: Ki as inhibitor of α-fucosidase; cited from earlier work
# T3 sequence (Q2KIM0 23-468): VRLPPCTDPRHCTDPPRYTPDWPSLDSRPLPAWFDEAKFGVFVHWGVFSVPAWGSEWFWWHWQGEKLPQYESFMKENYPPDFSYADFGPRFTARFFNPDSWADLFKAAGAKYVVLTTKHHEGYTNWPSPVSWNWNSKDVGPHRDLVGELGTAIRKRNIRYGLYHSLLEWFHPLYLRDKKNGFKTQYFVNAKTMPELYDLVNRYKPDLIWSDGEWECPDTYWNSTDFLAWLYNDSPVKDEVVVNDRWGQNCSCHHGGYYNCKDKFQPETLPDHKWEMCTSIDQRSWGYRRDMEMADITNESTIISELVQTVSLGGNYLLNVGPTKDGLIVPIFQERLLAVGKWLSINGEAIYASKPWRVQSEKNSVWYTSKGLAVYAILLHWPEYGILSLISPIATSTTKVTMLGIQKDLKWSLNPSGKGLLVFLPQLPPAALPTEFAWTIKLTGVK
# [3] = molecular target: β-N-acetylglucosaminidase; conditions: literature value (Wong et al. 1995); read-out: Ki as inhibitor of β-N-acetylglucosaminidase; cited from earlier work
# β-galactosidase [4] = test: Glycosidase inhibition analysis, β-galactosidase; type: biochemical; conditions: read-out: Ki as inhibitor of β-galactosidase
# Protocol: as §1
SMILES,inhibition of the glycosidases (in words) (glycosidases),inhibition of the HIV protease (in words) (HIV protease),also measured
"O[C@H]1[C@H](O)[C@H](O)CN(Cc2ccccc2)C[C@H]1O [Compound 7, (3R,4R,5R,6R)-N-Benzyl-3,4,5,6-tetrahydroxyazepane]",does not improve inhibition activity except in the case of α-fucosidase,not inhibitors,
"O[C@H]1[C@H](O)[C@@H](O)CN(Cc2ccccc2)C[C@@H]1O [Compound 8, (3S,4R,5R,6S)-N-Benzyl-3,4,5,6-tetrahydroxyazepane]",does not improve inhibition activity except in the case of α-fucosidase,not inhibitors,
"O[C@@H]1[C@@H](O)[C@@H](OCc2cc(F)cc(F)c2)CNC[C@@H]1OCc1cc(F)cc(F)c1 [Compound 60b, (3S,4R,5R,6S)-3,6-di-O-(3′,5′-difluorobenzyl)-3,4,5,6-tetrahydroxyazepane]",not inhibitors,inhibit,Ki (HIV protease): ~350 µM; IC50 against FIV protease (FIV protease): inceased compared to their inhibitory activity to the HIV protease; inhibition of FIV protease (in words) (FIV protease): active
"CN1C[C@H](OCc2cccc(F)c2)[C@H](O)[C@@H](O)[C@@H](OCc2cccc(F)c2)C1 [Compound 64a, (3S,4R,5R,6S)-3,6-di-O-(3′-Fluorobenzyl)-N-methyl-3,4,5,6-tetrahydroxyazepane]",not inhibitors,inhibit,
"C[N+]1([O-])C[C@H](OCc2cc(F)cc(F)c2)[C@H](O)[C@@H](O)[C@@H](OCc2cc(F)cc(F)c2)C1 (stereo partly drawn) [Compound 65b, (3S,4R,5R,6S)-3,6-di-O-(3′,5′-difluorobenzyl)-N-methyl-3,4,5,6-tetrahydroxyazepane N-oxide]",not inhibitors,inhibit,
OC[C@H]1NC[C@H](O)[C@@H](O)[C@H]1O [1-deoxygalactojirimycin],,,Ki (β-galactosidase [1]): > 1000 µM
"CO[C@@H]1CN[C@H](CO)[C@@H](O)[C@H]1O [Compound 28, 2-O-methyl-1-deoxy-D-mannojirimycin]",None of these two azasugars exhibited significant inhibition,,
"CN1C[C@H](OCc2cc(F)cc(F)c2)[C@H](O)[C@@H](O)[C@@H](OCc2cc(F)cc(F)c2)C1 [Compound 64b, (3S,4R,5R,6S)-3,6-di-O-(3′,5′-difluorobenzyl)-N-methyl-3,4,5,6-tetrahydroxyazepane]",not inhibitors,inhibit,
"OC1CNCC(O)C(O)C1O [Compound 3, (3R,4R,5R,6R)-tetrahydroxyazepane]",,not inhibitors; also recorded: did not show inhibitory activities,Ki [2]: 4.6 µM
C[C@@H]1NC[C@@H](O)[C@H](O)[C@@H]1O [1-deoxyfucojirimycin],,,Ki (α-fucosidase): 0.005 µM
"C[N+]1([O-])C[C@H](OCc2cccc(F)c2)[C@H](O)[C@@H](O)[C@@H](OCc2cccc(F)c2)C1 (stereo partly drawn) [Compound 65a, (3S,4R,5R,6S)-3,6-di-O-(3′-Fluorobenzyl)-N-methyl-3,4,5,6-tetrahydroxyazepane N-oxide]",not inhibitors,inhibit,
"O[C@@H]1[C@@H](O)[C@@H](OCc2cccc(F)c2)CNC[C@@H]1OCc1cccc(F)c1 [Compound 60a, (3S,4R,5R,6S)-3,6-di-O-(3′-fluorobenzyl)-3,4,5,6-tetrahydroxyazepane]",not inhibitors,inhibit,IC50 against FIV protease (FIV protease): inceased compared to their inhibitory activity to the HIV protease; inhibition of FIV protease (in words) (FIV protease): active
"CO[C@H]1CN[C@@H](CO)[C@H](O)[C@@H]1O [Compound 29, 2-O-methyl-1-deoxy-L-mannojirimycin]",None of these two azasugars exhibited significant inhibition,,
CC(=O)N1C[C@H](O)[C@@H](O)[C@H](O)[C@H]1CO [1-deoxy-N-acetylglucojirimycin],,,Ki [3]: 9.8 µM
"O[C@H]1[C@H](O)[C@@H](O)CNC[C@@H]1O [Compound 6, (3S,4R,5R,6S)-3,4,5,6-Tetrahydroxyazepane]",inhibits all glycosidases,not inhibitors; also recorded: did not show inhibitory activities,Ki (β-galactosidase [4]): 6.5 µM
